The source of these data is ChEMBL document CHEMBL1201862, “PubChem BioAssay data set” (2004).

Test systems include LXFL 529; SNB-78; KM-20L2; HOP-18; RXF 631; DMS-114; XF498; DU-145; T47D.
Test in all cases: NCI tumour cell line growth inhibition, 48 h

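Five concentrations, 48 hours, 96-well plates. Abbreviation: GI50, concentration required for 50% inhibition of growth.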 Active and inactive are the calls of the source. No stated cut-off is given here; in the data, active = GI50 up to about 1.1 µM and inactive = higher. Where a SMILES comes first, the peptide text is derived from it. Where only a bound is given, the exact number is not on record here.

In the case of `Cc1cc(Cl)ccc1NC(=O)C1C(=O)N(c2ccc(Cl)cc2C)C(=O)/C1=N\NC(N)=S` (configuration not stated), the GI50 in the test with LXFL 529 is 28.7 µM (inactive); with SNB-78 it was 44 µM (inactive); in the test on KM-20L2 it was 20.7 µM (inactive); in the test on HOP-18 it was 16.8 µM (inactive); with RXF 631 it was 45.6 µM (inactive); in the test with DMS-114, 31.6 µM (inactive).

Turning to `O=C(O)C(CO)NC(=O)n1c2ccccc2c2ccccc21` (configuration not stated), the GI50 in the test on LXFL 529, in the test with XF498, in the test on HOP-18 and with DMS-114 was > 100 µM (inactive) in each case.

Regarding `CCOC(C)C(/C=N/NC(N)=S)=NNC(N)=S` (configuration not stated) [GLOXAZONE], the GI50 was 0.0865 µM (active) in the test with LXFL 529, 53.7 µM (inactive) with SNB-78 and < 0.01 µM (active) in the test with DMS-114.

In the case of `CCc1cccc(C)c1NC(C)=O`, the GI50 in the test with LXFL 529, with XF498, in the test with SNB-78, in the test with KM-20L2, in the test on RXF 631 and in the test on DMS-114 was > 100 µM (inactive) in each case.

Regarding `C/C(CC(=O)Nc1ccc(C)cc1C)=N/N=C(N)N`, the GI50 in the test with LXFL 529, in the test on XF498, in the test on SNB-78, in the test on KM-20L2, in the test with RXF 631 and in the test with DMS-114 was > 100 µM (inactive) in each case.

For `Cn1cnc([N+](=O)[O-])c1Sc1nnc(C(F)(F)F)n1C`, the GI50 with LXFL 529 is 14.2 µM (inactive); with SNB-78, 26.2 µM (inactive); in the test with HOP-18 it was 19.5 µM (inactive); in the test on RXF 631, 17.6 µM (inactive); in the test with DMS-114 it was 34.6 µM (inactive).

As for `COC(=O)C1=C(C(=O)OC)C(C(=O)OC)C(C(=O)OC)C(C(=O)OC)(C(=O)OC)C(C(=O)OC)=C1C(=O)OC` (configuration not stated), the GI50 in the test with LXFL 529 was 9.73 µM (inactive); with XF498 it was 12.2 µM (inactive); in the test on DU-145 it was 18.2 µM (inactive); in the test with SNB-78, 18.4 µM (inactive); with KM-20L2, 17.7 µM (inactive); with HOP-18, 17.1 µM (inactive). In addition, the values for the GI50 with DMS-114 and in the test on T47D were 8.91 µM (inactive) and 21.9 µM (inactive), respectively.

In the case of `O=C1Nc2c(ccc(Cl)c2I)C1=O`, the GI50 was 14 µM (inactive) in the test with LXFL 529, 16 µM (inactive) in the test on XF498, 30 µM (inactive) in the test on KM-20L2 and 15.5 µM (inactive) in the test on DMS-114.

Consider `CCCCCCCCCCCCCCCCOCC(CP(=O)([O-])OCC[n+]1ccccc1)OC` (configuration not stated), for which the GI50 in the test with LXFL 529 was 11.4 µM (inactive); with XF498 it was 12.1 µM (inactive); with SNB-78, 15.9 µM (inactive); in the test with RXF 631, 14.6 µM (inactive); in the test with DMS-114, 11.4 µM (inactive).

In the case of `CC1=NN(C(=O)c2ccccc2O)C(=O)/C1=C/c1cccc(O)c1`, the GI50 in the test on LXFL 529 is 0.276 µM (active); in the test on XF498 it was 0.783 µM (active); in the test on DU-145, 0.536 µM (active); in the test on SNB-78, 0.276 µM (active); in the test on KM-20L2, 25.5 µM (inactive); in the test on T47D it was 0.472 µM (active).

As for `COc1cc2c(cc1OCc1ccccc1)CNCC2`, the GI50 with LXFL 529, in the test with XF498, in the test on SNB-78, in the test with KM-20L2, with HOP-18 and in the test with RXF 631 was > 100 µM (inactive) each time. Besides, the GI50 in the test on DMS-114 is > 100 µM (inactive).

For the molecule `O=C1C=C(c2[nH]c3ccccc3c2C2=CC(=O)c3ccccc3C2=O)C(=O)c2ccccc21`, the GI50 is 37.3 µM (inactive) in the test with LXFL 529, 32.8 µM (inactive) in the test with SNB-78, > 100 µM (inactive) in the test on HOP-18 and 17.3 µM (inactive) in the test with DMS-114.

For the molecule `CC(=O)NC1=C(N)C(=O)c2ccccc2C1=O`, the GI50 was 45 µM (inactive) in the test on LXFL 529; > 100 µM (inactive) in the test with XF498; > 100 µM (inactive) in the test with SNB-78; 87.5 µM (inactive) in the test on KM-20L2; > 100 µM (inactive) with HOP-18; > 100 µM (inactive) with RXF 631. The GI50 with DMS-114 is 14.8 µM (inactive).

As to `Cc1ccc(Cl)c2c(=O)cc(-c3ccccc3)[nH]c12`, the GI50 is 41.7 µM (inactive) in the test with LXFL 529 and 11.5 µM (inactive) in the test with HOP-18.

Consider `C=CCCCN1CCCCC1=S`, for which the GI50 in the test on XF498, with KM-20L2, with HOP-18, in the test on RXF 631 and with DMS-114 was > 100 µM (inactive) throughout.

In the case of `O=C(c1cccs1)N(C(=S)N1CCN(c2ccccn2)CC1)c1ccccc1`, the GI50 in the test on LXFL 529 is 39.4 µM (inactive); in the test with XF498, 37.5 µM (inactive); with SNB-78, > 100 µM (inactive); with KM-20L2, > 100 µM (inactive); in the test on HOP-18 it was > 100 µM (inactive); in the test on DMS-114, 53 µM (inactive).

Take `O=C(Nc1cc(Cl)ccc1Cl)c1cc2cccc(Cl)c2oc1=O`: the GI50 in the test with XF498 was 24 µM (inactive); in the test with KM-20L2 it was > 100 µM (inactive); in the test on HOP-18, 40.2 µM (inactive); in the test on DMS-114, > 100 µM (inactive).

Turning to `CC1C(c2ccccc2)N(C)C(c2ccccc2)C(C)C1(O)c1ccccc1` (configuration not stated), the GI50 in the test with LXFL 529, in the test with SNB-78, in the test with KM-20L2 and in the test with DMS-114 was > 100 µM (inactive) throughout.

With `CCC(C)C1NC(=O)C2CCCN2C(=O)CNC(=O)C(C)NC(=O)C(Cc2ccccc2)NC(=O)C(C(C)C)NC1=O` (configuration not stated) (cyclo(GPIVFA); configuration not given here), the GI50 in the test with LXFL 529, in the test on KM-20L2, in the test on HOP-18, in the test on RXF 631 and in the test with DMS-114 was > 100 µM (inactive) each time.

With `COc1cc(C=C2C(=O)OC(C)(C)OC2=O)cc(OC)c1OC`, the GI50 with LXFL 529, with SNB-78, in the test with KM-20L2, in the test with HOP-18 and in the test with DMS-114 was > 100 µM (inactive) in each case.

On to `O=C1C(Cl)=C(NCCOCCO)C(=O)c2c(O)ccc(O)c21`, for which the GI50 with LXFL 529 was 7.62 µM (inactive); in the test on SNB-78, 12.7 µM (inactive); with HOP-18, 15.6 µM (inactive).

Consider `CCC(=O)CC(=O)CCC(=O)Nc1cc(C)ccc1C`, for which the GI50 with LXFL 529, with XF498, with SNB-78, in the test with KM-20L2 and in the test on HOP-18 was > 100 µM (inactive) in each case.

Turning to `O=C(O)C1=Cc2cccc3cccc(c23)C1=O`, the GI50 in the test on LXFL 529, with KM-20L2, in the test on HOP-18 and in the test on DMS-114 was > 100 µM (inactive) in each case.

Regarding `COC(=O)C(Cl)=C1CC1`, the GI50 in the test on LXFL 529 was 16 µM (inactive); with XF498, 29.4 µM (inactive); in the test with SNB-78, 49.1 µM (inactive); with KM-20L2 it was > 100 µM (inactive); with DMS-114, 31 µM (inactive).

On to `ClC(Cl)=C(Cl)C1(Cl)CC1COCc1ccccc1` (configuration not stated), for which the GI50 is 51.6 µM (inactive) in the test on LXFL 529; 23.6 µM (inactive) with XF498; 4.83 µM (inactive) in the test with SNB-78; 33.3 µM (inactive) in the test on KM-20L2; 20.7 µM (inactive) with DMS-114.

As for `C/C(=N\NS(=O)(=O)c1ccc(C)cc1)c1cc2ccccc2n1C`, the GI50 in the test with LXFL 529, with KM-20L2 and with DMS-114 was > 100 µM (inactive) in each case.

For the molecule `c1ccc2c(c1)CCc1cc3cc4c(nc3nc1-2)-c1ccccc1CC4`, the GI50 in the test with LXFL 529 and in the test with SNB-78 was > 100 µM (inactive) each time.

`COc1ccc(NC(=O)CC(=O)N2N=C(N(CCC#N)c3ccccc3Cl)CC2c2ccccc2)cc1` (configuration not stated): the GI50 in the test with LXFL 529, in the test with XF498, in the test with SNB-78, with KM-20L2, in the test on HOP-18 and in the test on RXF 631 was > 100 µM (inactive) in each case. Further, the GI50 in the test on DMS-114 is > 100 µM (inactive).

For the molecule `N#CC1CCCCCCCCCCC(=O)N(CCCl)C1=O` (configuration not stated), the GI50 in the test on LXFL 529, with XF498, in the test with SNB-78, in the test on KM-20L2 and in the test on DMS-114 was > 100 µM (inactive) in each case.

Turning to `NC(=S)N1N=C2CCCCCC[C@@H]2[C@H]1c1ccccc1`, the GI50 was 40 µM (inactive) in the test with LXFL 529; 23.9 µM (inactive) with XF498; > 100 µM (inactive) in the test with SNB-78; 62.1 µM (inactive) in the test on KM-20L2; 27.1 µM (inactive) with DMS-114.

Turning to `NCCCOc1ccc([N+](=O)[O-])cc1Cl`, the GI50 is 67.3 µM (inactive) in the test with LXFL 529, > 100 µM (inactive) in the test with XF498, > 100 µM (inactive) in the test on KM-20L2 and > 100 µM (inactive) with DMS-114.

For the molecule `CC1=C(C(=O)Nc2ccccc2C)C(c2ccco2)C(C(=O)Nc2ccccc2C)=C(C)N1C`, the GI50 in the test on LXFL 529 was > 100 µM (inactive); with XF498, > 100 µM (inactive); in the test on SNB-78 it was > 100 µM (inactive); in the test on HOP-18, > 100 µM (inactive); with RXF 631 it was 81.5 µM (inactive); in the test on DMS-114, > 100 µM (inactive).

Consider `COC(=O)[C@@]12OC[C@]34C([C@@H](O)C1O)[C@@]1(C)CC(=O)C(OC(=O)CC(C)C(F)(F)F)=C(C)C1C[C@H]3OC(=O)[C@H](O)[C@H]42` (some centres not stated), for which the GI50 with LXFL 529 is 3.81 µM (inactive); in the test on XF498, 0.13 µM (active); in the test with SNB-78, 29.2 µM (inactive); with KM-20L2, 3.8 µM (inactive); with HOP-18, 1.99 µM (inactive); in the test with DMS-114 it was 1.44 µM (inactive).

As to `O=C(c1nc2ccc(Cl)cc2[nH]c1=O)C(O)c1cccc([N+](=O)[O-])c1` (configuration not stated), the GI50 is > 100 µM (inactive) with LXFL 529; 9.1 µM (inactive) in the test with XF498; > 100 µM (inactive) in the test with SNB-78; > 100 µM (inactive) in the test with KM-20L2; > 100 µM (inactive) in the test with HOP-18; 5.98 µM (inactive) in the test on DMS-114.

As to `O=C(N/C(=C\c1cc(Cl)ccc1Cl)c1nc2cc(Cl)ccc2[nH]1)c1ccccc1`, the GI50 in the test with LXFL 529 was 13.6 µM (inactive); with SNB-78, 21.7 µM (inactive); in the test on KM-20L2, 18.2 µM (inactive); in the test with DMS-114, 15.4 µM (inactive).
